# Marks after values point to notes of the source that are not given here.
# Assays:
# [1] = tested on: hTREM2-CV knock-in transgenic mice; test: IP-10 and CCL2 expression in brain and plasma of mice after acute dosing (TREM2 target engagement, MSD V-PLEX); type: in vivo, mouse; conditions: 24 hours
# Protocol: IP-10 expression in the brain and plasma of mice after administration of Example 192 and a TREM2 agonist antibody
# To test TREM2 target engagement in an acute dosing paradigm using the compound of Example 192 (5-(4-chloro-2-fluorophenyl)-2,3-dimethyl-7-((2R,4S)-2-(1-methyl-1H-pyrazol-4-yl) tetrahydro-2H-pyran-4-yl)pyrido[3,4-b]pyrazine), hTREM2-CV knock-in transgenic mice were dosed using oral gavage (PO) twice a day (0 and 10 h) followed by sample collection at 24 hours. 6 animals received the compound of Example 192 at 50 mg/kg, and 6 animals received vehicle only (2% Hydroxypropyl Methylcellulose, 1% Tween-80 in PBS). In the same experiment, an anti-hTREM2 Antibody Ab-1 was dosed intraperitoneally (IP) at 100 mg/kg (control was a non-binding matched IgG isotype control). Ab-1 is a murinized version of a human TREM2 agonist antibody, first described as an engineered variant of antibody 13E7 in PCT Application Publication WO2018/195506A1. Ab-1 has an HC according to SEQ ID NO:9, an LC according to SEQ ID NO:10, and exemplifies an anti-TREM2 antibody having the CDRs according to SEQ ID NOS:1-6. Twenty-four hours following the zero-hour dose, mice were humanely euthanized for blood collection prior to cardiac perfusion with PBS and brain harvest. Brains were micro dissected into right and left regions of interest (including the cortex and hippocampus) for independent processing of cytokine and mRNA expression profiles. Whole blood was collected into EDTA-containing vials to prevent coagulation, and centrifuged to isolate the plasma fraction before storage at −80° C. Right and left hemisphere cortices were flash frozen in liquid nitrogen and stored at −80° C. before lysis and homogenization.
# Plasma and brain lysates were analyzed for IP-10 (CXCL10) and CCL2 (MCP1) expression using a Meso Scale Discovery (MSD) multi-array reader and V-PLEX kits per manufacturer's protocols.
# The upregulation of IP-10 was more robust, and so IP-10 levels were analyzed in plasma from the same experiment.
# [2] = tested on: hTREM2-CV knock-in transgenic mice; test: Nanostring nCounter Murine Neuroinflammation panel, Cell Type Profiling scores in hippocampi; type: in vivo, mouse
# Protocol: (§1) Nanostring analysis of gene expression profiles after administration of Example 192 and a TREM2 agonist antibody in a mouse model
# (§2) To assess the impact of TREM2 agonism on cellular processes and pathways, the right hemisphere hippocampi from the acute dosing of the compound of Example 192 and […] Ab-1, as described in Example A3, were analyzed for gene expression changes. Cells from frozen hippocampi were lysed, and RNA was isolated. Key gene expression profiles were analyzed using the nCounter Murine Neuroinflammation panel of 770 genes related to inflammation in the CNS. Results of individual gene expression changes relative to the mean of several housekeeper genes were grouped in pathways of interest and assigned a relative score using the nSolver analysis software.
# (§3) Nanostring nSolver software includes a module for Cell Type Profiling that identifies genes linked to cell type in an experiment. […] Pathway analysis was also performed. Genes associated with the adaptive immune response, innate immune response, microglia function, cytokine signalling, and cell cycle were all increased in hippocampi from animals treated with the compound of Example 192 and Ab-1. Table 22 reports the effects of the compound of Example 192 and Ab-1 on these genes, where the values reflect PC1 scores from principal component analysis of the gene set.
# [3] = tested on: hTREM2-CV knock-in transgenic mice; test: Nanostring nCounter Murine Neuroinflammation panel, pathway analysis (PC1 scores) in hippocampi; type: in vivo, mouse
# Protocol: as §1, §2, §3
# hTREM2 = hTREM2 (Homo sapiens, UniProt Q9NZC2); test: TREM2 activity by cellular Syk phosphorylation (AlphaScreen/AlphaLISA) in TREM2/DAP12-HEK cells, used for Examples 1-305; type: cell-based; set-up: expressed in transfected cells; conditions: HEK293 Cells
# Procedure, shortened: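 Single-cell-cloned HEK293 cells overexpressing TREM2 and DAP12, seeded 20 h, exposed to test articles (1% final DMSO) for 45 min at room temperature. Lysates read for phospho-Syk (Tyr525/526) vs total Syk by AlphaScreen. Signal normalised as percent of control between isotype IgG and 100 nM anti-TREM2 antibody; 4-parameter logistic fit.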
# [4] = Example 192 50 mg/kg PO at 0 and 10 h, Ab-1 100 mg/kg IP, compared to vehicle-treated animals
# [5] = hippocampi after acute dosing, mean score (standard deviation)
# [6] = right hemisphere hippocampi, acute dosing as in Example A3
# [7] = PC1 score, mean score (standard deviation)
# hTREM2, sequence (Q9NZC2 19-230): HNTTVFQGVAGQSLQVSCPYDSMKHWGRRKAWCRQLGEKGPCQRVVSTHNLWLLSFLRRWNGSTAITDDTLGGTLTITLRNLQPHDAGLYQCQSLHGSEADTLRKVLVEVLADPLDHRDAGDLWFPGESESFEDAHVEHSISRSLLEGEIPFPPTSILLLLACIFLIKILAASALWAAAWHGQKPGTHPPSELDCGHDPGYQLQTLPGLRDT
# hTREM2, sequence (O43914 22-113 partner): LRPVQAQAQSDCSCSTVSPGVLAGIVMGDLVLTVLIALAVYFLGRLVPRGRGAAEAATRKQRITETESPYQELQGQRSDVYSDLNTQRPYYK
compound,measurement,setting,value
"Cc1nc2cc([C@H]3CCO[C@@H](c4cnn(C)c4)C3)nc(-c3ccc(Cl)cc3F)c2nc1C (single isomer, unassigned) [Example 192]",peripheral IP-10 levels in the plasma fraction,[1]; 50 mg/kg PO at 0 and 10 h,no apparent cytokine upregulation
same,CCL2 (MCP1) in cortical lysates,[1]; [4],induced upregulation
same,IP-10 (CXCL10) in cortical lysates,[1]; [4],induced upregulation
same,Microglia Score (Cell Type Profiling),[2]; [5],6.82 (0.090) *
same,astrocyte score (Cell Type Profiling),[2]; [5],8.86 (0.077)
same,neuron score (Cell Type Profiling),[2]; [5],8.81 (0.185)
same,astrocyte score (Cell Type Profiling),[2]; [6],no change
same,"microglia score (Cell Type Profiling, microglial-associated genes)",[2]; [6],increase
same,neuron score (Cell Type Profiling),[2]; [6],no change
same,Pathway Score Adaptive Immune Response,[3]; [7],0.639 (0.929) *
same,Pathway Score Cell Cycle,[3]; [7],0.398 (0.414) *
same,Pathway Score Cytokine Signaling,[3]; [7],0.180 (0.514) *
same,Pathway Score Innate Immune Response,[3]; [7],0.490 (0.674) *
same,Pathway Score Microglia Function,[3]; [7],0.345 (0.908) *
same,genes associated with cell cycle,[3]; acute dosing as in Example A3,increased
same,genes associated with cytokine signalling,[3]; acute dosing as in Example A3,increased
same,genes associated with microglia function,[3]; acute dosing as in Example A3,increased
same,genes associated with the adaptive immune response,[3]; acute dosing as in Example A3,increased
same,genes associated with the innate immune response,[3]; acute dosing as in Example A3,increased
same,EC50,hTREM2,≤ 50 nM
same,hTREM2 Emax,hTREM2,++++ (Emax>250)

# From patent publication US11884675B2, “Heterocyclic compounds as triggering receptor expressed on myeloid cells 2 agonists and methods of use” (AMGEN INC., priority 2020, dated 2024)
